Measured values published in patent US10172914B2, “Combination” (Genesis Pharma SA, priority 2015, dated 2019).

Assays:
[1] = tested on: Rabbit Model of Acute Myocardial Infarction Injury; assay: Rabbit ischemia-reperfusion model, exenatide and potassium canrenoate, infarct size (Example 3); type: in vivo, New Zealand White rabbits; conditions: for IF/AAR: mean ± SEM, exenatide 0.15 μg/Kg and/or P. canrenoate 1 mg/Kg IV bolus 15 min before reperfusion, 30 min ischemia, 180 min reperfusion
[2] = tested on: Mouse Model of Acute Myocardial Infarction Injury; assay: Mouse ischemia-reperfusion model, mono-, double and triple therapies, infarct size (Example 5); type: in vivo, C57BL/6 mice; conditions: for IF/AAR: mean ± SEM
Method: The test/control articles were given intravenously, under general anaesthesia, in order to mimic the expected route of administration in the clinical setting of acute myocardial infarction and primary percutaneous coronary intervention.
The study followed a predetermined placebo controlled design. […] In all cases, treatments (intravenous bolus administration of saline or test articles or their combinations) were performed 20 min after the onset of ischemia (10 min before the initiation of reperfusion). The experiments were terminated 2 h post-reperfusion (end of study); irreversible myocardial injury (infarct size by histomorphometry) at this time-point was evaluated, and was the primary-end-point of the study.
Mice were anaesthetized by intraperitoneal injection (0.01 ml/Kg) with a combination of ketamine, xylazine and atropine (final doses of ketamine, xylazine and atropine were 100, 20 and 0.6 mg/Kg, respectively). Anaesthetic depth was evaluated by loss of pedal reflex to toe-pinch stimulus and breathing rate. A tracheotomy was performed for artificial respiration at 120-150 breaths/min and positive end-expiratory pressure 2.0 (0.2 ml of total tidal volume; Flexivent rodent ventilator, Scireq, Montreal, ON, Canada). A thoracotomy was then performed between the fourth and fifth ribs and the pericardium carefully retracted to visualize the left anterior descending (LAD), which was ligated using an 8-0 prolene monofilament polypropylene suture placed 1 mm below the tip of the left auricle. […] After the ischemic period, the ligature was released allowing reperfusion of myocardium. Throughout experiments, body temperature was maintained at 37±0.5° C. by way of a heating pad and monitored via a thermocouple inserted rectally.
After reperfusion, animals were sacrificed with an intraperitoneal injection of the ketamine (200 mg/Kg) and xylazine (50 mg/Kg) anesthetic mixture (0.02 ml/Kg) hearts were rapidly excited from mice and directly cannulated and washed with 2.5 ml of saline heparin 1% for blood removal. Five ml of 1% TTC phosphate buffer 37° C. were infused into the coronary circulation; the tissue was incubated for 5 min in the same buffer. Evans Blue 1% diluted in distilled water (2.5 ml) was the infused into the heart. Hearts were kept at −20° C. for 24 hours and then sliced in 1 mm sections parallel to the atrioventricular groove, and then fixed in 4% formalin overnight. […] The areas of myocardial tissue at risk and infarcted were automatically transformed into volumes. Infarct and risk area volumes were expressed in cm^3. For each slide, the AAR was expressed as a percentage of the LV area (AAR/LV), and the IF was expressed as a percentage of the AAR (IF/AAR). In all cases, quantitative histomorphometry was performed by personnel blinded to the treatment assignment/study-design.
All results are presented as mean+SEM. Comparisons of numeric variables among the groups were analyzed using an one-way analysis of variance (ANOVA) model with Bonferroni correction and with Tukey post hoc analysis. […] A calculated P-value of less than 0.05 was considered to be statistically significant.

[3] = exenatide 0.05 μg/Kg, cyclosporine 0.15 mg/Kg, P. canrenoate 1 mg/Kg, alone or in double/triple combination
[4] = monotherapy doses: exenatide 0.001 μg/Kg, cyclosporine 0.001 mg/Kg, P. canrenoate 0.03 mg/Kg
[5] = monotherapy doses: exenatide 0.005 μg/Kg, cyclosporine 0.01 mg/Kg, P. canrenoate 0.3 mg/Kg
[6] = monotherapy doses: exenatide 0.15 μg/Kg, cyclosporine 0.5 mg/Kg, P. canrenoate 10 mg/Kg

## C[C@]12CCC(=O)C=C1C=C[C@@H]1[C@@H]2CC[C@@]2(C)[C@H]1CC[C@@]2(O)CCC(=O)[O-].[K+] [P. CANRENOATE, potassium 3-[(8R,9S,10R,13S,14S,17R)-17-hydroxy-10,13-dimethyl-3-oxo-2,8,9,11,12,14,15,16 octahydro-1H-cyclopenta[a]phenanthren-17-yl]propanoate]
[1]; compared with the control group, exenatide 0.15 μg/Kg and/or potassium canrenoate 1 mg/Kg
  reduction of the extent of infarct: 30.5%
[1]; exenatide 0.15 μg/Kg and/or P. canrenoate 1 mg/Kg
  Different (%) in IF/AAR from Control: −30.5%
[1]
  IF/AAR: 34.36 ± 2.83%
[1]; listed as potassium canrenoate
  IF/AAR: 34.36±2.83%
[2]; compared with the control group, exenatide 0.05 μg/kg, cyclosporine 0.15 mg/kg, potassium canrenoate 1 mg/kg, alone or combined
  reduction of infarct size / extent of infarct: 30%
[2]; compared with the control group, potassium canrenoate 10 mg/kg monotherapy
  reduction of infarct size: 58.9%
[2]; [3]
  Different (%) in IF/AAR from Control: −30%
  IF/AAR: 33.2 ± 2.4%
[2]; exenatide 0.05 μg/Kg, cyclosporine 0.15 mg/Kg, P. canrenoate 1 mg/Kg, alone or in double/triple combination, listed as potassium canrenoate
  IF/AAR: 33.2±2.4%
[2]; [4]
  IF/AAR: 46 ± 2.5%
  Different (%) in IF/AAR from Control: −3%
[2]; [5]
  IF/AAR: 44 ± 3.2%
  Different (%) in IF/AAR from Control: −7.2%
[2]; [6]
  IF/AAR: 19.5 ± 2.5%
  Different (%) in IF/AAR from Control: −58.9%
[2]; monotherapy doses: exenatide 0.15 μg/Kg, cyclosporine 0.5 mg/Kg, P. canrenoate 10 mg/Kg, listed as potassium canrenoate
  IF/AAR: 19.5±2.5%
